# Data: patent US20130121994A1, “TRIAZOLOPYRIDINE DERIVATIVES” (BAYER INTELLECTUAL PROPERTY GMBH, priority 2009, published 2013)
# Biological target: T1, human kinase Mps-1 (Homo sapiens, UniProt P33981)
# T1 construct: N-terminally GST-tagged human full length recombinant Mps-1 kinase; GST (N); purchased Invitrogen, Karslruhe, Germany PV4071
# T1 sequence (P33981 1-857): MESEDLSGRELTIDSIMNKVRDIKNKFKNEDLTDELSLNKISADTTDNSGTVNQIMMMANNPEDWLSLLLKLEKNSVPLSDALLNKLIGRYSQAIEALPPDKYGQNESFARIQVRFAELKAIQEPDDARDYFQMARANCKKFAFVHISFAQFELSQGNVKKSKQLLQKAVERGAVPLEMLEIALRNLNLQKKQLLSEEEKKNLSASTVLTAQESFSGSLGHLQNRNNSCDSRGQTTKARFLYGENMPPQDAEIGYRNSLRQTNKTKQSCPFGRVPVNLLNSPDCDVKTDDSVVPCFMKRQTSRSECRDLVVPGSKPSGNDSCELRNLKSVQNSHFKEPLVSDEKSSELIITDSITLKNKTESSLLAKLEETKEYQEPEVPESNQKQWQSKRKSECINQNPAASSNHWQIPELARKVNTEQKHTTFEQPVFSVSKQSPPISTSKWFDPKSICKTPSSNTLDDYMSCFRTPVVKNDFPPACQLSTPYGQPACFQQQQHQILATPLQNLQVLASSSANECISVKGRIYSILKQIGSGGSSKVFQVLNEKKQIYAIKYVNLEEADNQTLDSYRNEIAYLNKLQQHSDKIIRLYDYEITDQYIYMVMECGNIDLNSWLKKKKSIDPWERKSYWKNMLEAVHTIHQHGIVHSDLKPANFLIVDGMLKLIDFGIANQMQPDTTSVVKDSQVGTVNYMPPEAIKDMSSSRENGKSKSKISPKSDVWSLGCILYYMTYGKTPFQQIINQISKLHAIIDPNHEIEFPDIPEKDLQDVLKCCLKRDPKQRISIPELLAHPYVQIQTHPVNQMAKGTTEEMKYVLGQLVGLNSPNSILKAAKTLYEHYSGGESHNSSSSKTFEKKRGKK
# Test: Mps-1 kinase assay (HTRF)
# Format: biochemical
# Method: The human kinase Mps-1 phosphorylates a biotinylated substrate peptide. Detection of the phosphorylated product is achieved by homogenous time-resolved fluorescence resonance energy transfer (HTRF) from Europium-labelled anti-phospho-Serine/Threonine antibody as donor to streptavidin labelled with cross-linked allophycocyanin (SA-XLent) as acceptor. Compounds are tested for their inhibition of the kinase activity.
# N-terminally GST-tagged human full length recombinant Mps-1 kinase (purchased from Invitrogen, Karslruhe, Germany, cat. no PV4071) was used. As substrate for the kinase reaction a biotinylated peptide of the amino-acid sequence […] (C-terminus in amide form, purchased from Biosynthan GmbH, Berlin) was used.
# The concentration of Mps-1 in the assay was adjusted to the activity of the enzyme lot and was chosen appropriate to have the assay in the linear range, typical enzyme concentrations were in the range of about 1 nM (final conc. in the 5 μl assay volume).
# The resulting mixture was incubated 1 h at 22° C. to allow the binding of the phosphorylated peptide to the anti-phospho(Ser/Thr)-Europium-antibody. Subsequently the amount of phosphorylated substrate was evaluated by measurement of the resonance energy transfer from the Europium-labelled anti-phospho(Ser/Thr) antibody to the Streptavidin-XLent.
row,IC50,Structure (SMILES)
1,8.28 nM,"CC(C)(C)CNC(=O)c1ccc(-c2ccc3nc(Nc4ccccc4C#N)nn3c2)cc1 [Example 11.012, 4-{2-[(2-cyanophenyl)amino][1,2,4]triazolo[1,5-a]pyridin-6-yl}-N-(2,2-dimethylpropyl)benzamide]"
2,1060 nM,"CC(C)(C)OC(=O)c1ccc(-c2ccc3nc(Nc4ccccc4C#N)nn3c2)cc1 [Example 11.013, tert-butyl 4-{2-[(2-cyanophenyl)amino][1,2,4]triazolo[1,5-a]pyridin-6-yl}benzoate]"
3,42.5 nM,"CC(C)(C)NC(=O)c1ccc(-c2ccc3nc(Nc4ccccc4C#N)nn3c2)cc1 [Example 11.014, N-tert-butyl-4-{2-[(2-cyanophenyl)amino][1,2,4]triazolo[1,5-a]pyridin-6-yl}benzamide]"
4,1.64 nM,"CCOCCNC(=O)c1ccc(Nc2nc3ccc(-c4ccc(C(=O)NCC(F)(F)F)cc4)cn3n2)c(OC)c1 [Example 11.015, N-(2-ethoxyethyl)-3-methoxy-4-[(6-{4-[(2,2,2-trifluoroethyl)carbamoyl]phenyl}[1,2,4]triazolo [1,5-a]pyridin-2-yl)amino]benzamide]"
5,1.29 nM,"COc1cc(C(=O)NCC(C)(C)O)ccc1Nc1nc2ccc(-c3ccc(C(=O)NCC(F)(F)F)cc3)cn2n1 [Example 11.016, N-(2-hydroxy-2-methylpropyl)-3-methoxy-4-[(6-{4-[(2,2,2-trifluoroethyl)carbamoyl]phenyl}[1,2,4]triazolo [1,5-a]pyridin-2-yl)amino]benzamide]"
6,1.73 nM,"COc1cc(C(=O)NC(C)(C)CO)ccc1Nc1nc2ccc(-c3ccc(C(=O)NCC(F)(F)F)cc3)cn2n1 [Example 11.017, N-(1-hydroxy-2-methylpropan-2-yl)-3-methoxy-4-[(6-{4-[(2,2,2-trifluoroethyl)carbamoyl]phenyl}[1,2,4]triazolo [1,5-a]pyridin-2-yl)amino]benzamide]"
7,1.03 nM,"COc1cc(C(=O)NC(C)(C)CO)ccc1Nc1nc2ccc(-c3ccc(C(=O)NCC(F)(F)F)c(F)c3)cn2n1 [Example 11.018, 2-fluoro-4-[2-({4-[(1-hydroxy-2-methylpropan-2-yl)carbamoyl]-2-methoxyphenyl}amino)[1,2,4]triazolo[1,5-a]pyridin-6-yl]-N-(2,2,2-trifluoroethyl)benzamide]"
8,1.78 nM,"COc1cc(C(=O)NCCO)ccc1Nc1nc2ccc(-c3ccc(C(=O)NCC(F)(F)F)cc3)cn2n1 [Example 11.019, N-(2-hydroxyethyl)-3-methoxy-4-[(6-{4-[(2,2,2-trifluoroethyl)carbamoyl]phenyl}[1,2,4]triazolo [1,5-a]pyridin-2-yl)amino]benzamide]"
9,3.05 nM,"COc1cc(C(=O)N(C)CCN(C)C(C)=O)ccc1Nc1nc2ccc(-c3ccc(C(=O)NCC(F)(F)F)cc3)cn2n1 [Example 11.020, N-{2-[acetyl(methyl)amino]ethyl}-3-methoxy-N-methyl-4-[(6-{4-[(2,2,2-trifluoroethyl)carbamoyl]phenyl}[1,2,4]triazolo [1,5-a]pyridin-2-yl)amino]benzamide]"
10,3.5 nM,"COc1cc(C(=O)N(C)CCN(C)C(=O)OC(C)(C)C)ccc1Nc1nc2ccc(-c3ccc(C(=O)NCC(F)(F)F)cc3)cn2n1 [Example 11.021, tert-butyl {2-[{3-methoxy-4-[(6-{4-[(2,2,2-trifluoroethyl)carbamoyl]phenyl}[1,2,4]triazolo [1,5-a]pyridin-2-yl)amino]benzoyl}(methyl)amino]ethyl}methyl-carbamate]"
11,4.36 nM,"COc1cc(C(=O)NC(C)(C)CO)ccc1Nc1nc2ccc(-c3ccc(C(=O)NCC(C)C)cc3)cn2n1 [Example 11.022, N-(1-hydroxy-2-methylpropan-2-yl)-3-methoxy-4-[(6-{4-[(2-methylpropyl)carbamoyl]phenyl}[1,2,4]triazolo [1,5-a]pyridin-2-yl)amino]benzamide]"
12,5.22 nM,"COc1cc(C(=O)NC(C)(C)CO)ccc1Nc1nc2ccc(-c3ccc(C(=O)NCCC(F)(F)F)cc3)cn2n1 [Example 11.023, N-(1-hydroxy-2-methylpropan-2-yl)-3-methoxy-4-[(6-{4-[(3,3,3-trifluoropropyl)carbamoyl]phenyl}[1,2,4]tria-zolo[1,5-a]pyridin-2-yl)amino]benzamide]"
13,3.84 nM,"COc1cc(C(=O)NC(C)(C)CO)ccc1Nc1nc2ccc(-c3ccc(C(=O)NCC(F)(F)F)c(C)c3)cn2n1 [Example 11.024, 4-[2-({4-[(1-hydroxy-2-methylpropan-2-yl)carbamoyl]-2-methoxyphenyl}amino)[1,2,4]triazolo[1,5-a]pyridin-6-yl]-2-methyl-N-(2,2,2-trifluoroethyl)benzamide]"
14,7.31 nM,"COc1cc(C(=O)NCC(C)(C)O)ccc1Nc1nc2ccc(-c3ccc(C(=O)NCCC(F)(F)F)cc3)cn2n1 [Example 11.025, N-(2-hydroxy-2-methylpropyl)-3-methoxy-4-[(6-{4-[(3,3,3-trifluoropropyl)carbamoyl]phenyl}[1,2,4]tria-zolo[1,5-a]pyridin-2-yl)amino]benzamide]"
15,4.08 nM,"COc1cc(C(=O)NC(C)(C)CO)ccc1Nc1nc2ccc(-c3ccc(C(=O)NCC(F)(F)F)c(Cl)c3)cn2n1 [Example 11.026, 2-chloro-4-[2-({4-[(1-hydroxy-2-methylpropan-2-yl)carbamoyl]-2-methoxyphenyl}amino)[1,2,4]triazolo[1,5-a]pyridin-6-yl]-N-(2,2,2-trifluoroethyl)benzamide]"
16,35.8 nM,"CCN(CC)C(=O)c1ccc(Nc2nc3ccc(-c4ccc(C(=O)NCC(C)(C)C)cc4)cn3n2)c(OC)c1 [Example 11.027, 4-[(6-{4-[(2,2-dimethylpropyl)carbamoyl]phenyl}[1,2,4]tria-zolo[1,5-a]pyridin-2-yl)amino]-N,N-diethyl-3-methoxybenzamide]"
17,≤ 1 nM,"CCOc1cc(C(=O)NCCO)ccc1Nc1nc2ccc(-c3ccc(C(=O)NCC(F)(F)F)cc3)cn2n1 [Example 11.028, 3-ethoxy-N-(2-hydroxyethyl)-4-[(6-{4-[(2,2,2-trifluoroethyl)carbamoyl]phenyl}[1,2,4]triazolo [1,5-a]pyridin-2-yl)amino]benzamide]"
18,≤ 1 nM,"CCOc1cc(C(=O)NC(C)(C)CO)ccc1Nc1nc2ccc(-c3ccc(C(=O)NCC(F)(F)F)cc3)cn2n1 [Example 11.029, 3-ethoxy-N-(1-hydroxy-2-methylpropan-2-yl)-4-[(6-{4-[(2,2,2-trifluoroethyl)carbamoyl]phenyl}[1,2,4]triazolo [1,5-a]pyridin-2-yl)amino]benzamide]"
19,≤ 1 nM,"CCOc1cc(C(=O)NC(C)(C)C)ccc1Nc1nc2ccc(-c3ccc(C(=O)NCC(F)(F)F)cc3)cn2n1 [Example 11.030, N-tert-butyl-3-ethoxy-4-[(6-{4-[(2,2,2-trifluoroethyl)carbamoyl]phenyl}[1,2,4]triazolo [1,5-a]pyridin-2-yl)amino]benzamide]"
20,≤ 1 nM,"CCNC(=O)c1ccc(Nc2nc3ccc(-c4ccc(C(=O)NCC(F)(F)F)cc4)cn3n2)c(OCC)c1 [Example 11.031, 3-ethoxy-N-ethyl-4-[(6-{4-[(2,2,2-trifluoroethyl)carbamoyl]phenyl}[1,2,4]triazolo [1,5-a]pyridin-2-yl)amino]benzamide]"
21,≤ 1 nM,"CCOc1cc(C(=O)NCC(C)(C)O)ccc1Nc1nc2ccc(-c3ccc(C(=O)NCC(F)(F)F)cc3)cn2n1 [Example 11.032, 3-ethoxy-N-(2-hydroxy-2-methylpropyl)-4-[(6-{4-[(2,2,2-trifluoroethyl)carbamoyl]phenyl}[1,2,4]triazolo [1,5-a]pyridin-2-yl)amino]benzamide]"
